Laboratory results reported in US12559529B2, “NPY2 receptor agonists” (Boehringer Ingelheim International GmbH, priority 2019, dated 2026).
*1 amine or outer side, *2 acyl side, *3 side chain or, on linkers, in order; H or OH if unused. Where a SMILES comes first, the peptide text is derived from it. Side-chain parts run from the residue outwards. The star is where a group is joined. C18 diacid = O=C(O)CCCCCCCCCCCCCCCCC(=O)*; γGlu = O=C(O)[C@H](CCC(=O)[*:2])N[*:1]; Isovaleryl = CC(C)CC(=O)*; AEEA = NCCOCCOCC(=O)O

Assays:
normal NMRI mice = assay: Effect on acute food intake in normal NMRI mice; format: in vivo; conditions: male NMRI mice, 10 nmol/kg subcutaneously once
Description: Male NMRI mice were obtained from Charles River (Charles River, Research Models & Services Germany GmbH) or from Jan Vier (Jan Vier Labs, France) at 5 weeks of age. […] Room temperature was controlled to 21° C.±1° C., with 60%+20% humidity.
Animals were transferred 5-7 days before the start of the study to a real-time food intake monitoring system, HM-2 system (MBRose, Denmark), to allow acclimatization to experimental conditions. As the animals were uniquely identified with microchips, each individual animal was identified by its microchip upon entry and exit from the food channel. Randomization of the mice for each study group (n=7-8) was based on body weight measured the day before the start of the study. A vehicle-treated (50 mM phosphate buffer pH7 with 5% Mannitol) group was included in each experiment. Six hours before the start of the night phase animals were fasted. One hour before the dark phase animals were dosed once subcutaneously (10 nmol/kg) with test peptide. […] The food intake of the treated groups was normalized (in %) to the average food intake of the group receiving vehicle (Table 7). Statistical significance was evaluated using One-way analysis of variance with Turkey's multiple comparison test. P<0.05 was considered statistically significant.

[1] = molecular target: T1, Human Neuropeptide Y2 Receptor (Homo sapiens, UniProt P49146); assay: Radioligand binding competition assay (RLB); conditions: Table 3; human 125I-PYY (1-36) 0.02 nM, Y2 receptor membranes; read-out: Ki
T1 construct: purchased CHEMICON HTS066M
T1 sequence (P49146 1-381): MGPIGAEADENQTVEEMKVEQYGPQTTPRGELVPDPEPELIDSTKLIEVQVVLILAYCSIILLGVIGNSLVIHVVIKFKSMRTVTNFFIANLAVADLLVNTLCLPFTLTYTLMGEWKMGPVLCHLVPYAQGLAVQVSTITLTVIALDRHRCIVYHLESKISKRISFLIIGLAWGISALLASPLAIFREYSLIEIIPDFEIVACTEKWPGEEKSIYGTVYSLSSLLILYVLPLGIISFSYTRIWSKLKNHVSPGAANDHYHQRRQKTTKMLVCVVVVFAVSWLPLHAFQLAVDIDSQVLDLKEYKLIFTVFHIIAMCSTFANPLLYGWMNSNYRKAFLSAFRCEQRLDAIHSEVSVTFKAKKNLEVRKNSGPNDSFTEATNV
Summary of the method: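 Peptide dilutions made in pH 7.4 HEPES assay buffer with 0.2% ovalbumin; human Y2 receptor membranes added at 0.5 μg protein/well; plates shaken 2 h at room temperature; reaction stopped by vacuum filtration onto PEI-treated GF/C filters with ice-cold high-salt washes; radioactivity counted by scintillation.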

Row | Compound | Acute Food Intake 24 h [% vehicle] (normal NMRI mice) | Ki [1] [nM]
1 | CC(C)CC(=O)N[C@@H](C)C(=O)N1CCC[C@H]1C(=O)N[C@@H](CCC(=O)O)C(=O)N[C@@H](CCCCNC(=O)COCCOCCNC(=O)COCCOCCNC(=O)CC[C@H](NC(=O)CCCCCCCCCCCCCCCCC(=O)O)C(=O)O)C(=O)N1CCC[C@H]1C(=O)N[C@@H](CCC(=O)O)C(=O)N[C@@H](C)C(=O)N[C@@H](CC(=O)O)C(=O)N[C@@H](C)C(=O)N[C@@H](CO)C(=O)N[C@@H](CCC(=O)O)C(=O)N[C@@H](CCC(=O)O)C(=O)N[C@@H](CCC(=O)O)C(=O)N[C@@H](CC(C)C)C(=O)N[C@@H](CCC(N)=O)C(=O)N[C@@H](CCCNC(=N)N)C(=O)N[C@@H](Cc1ccc(O)cc1)C(=O)N[C@@H](Cc1ccc(O)cc1)C(=O)N[C@H](C(=O)N[C@@H](CO)C(=O)N[C@@H](CC(C)C)C(=O)N[C@@H](CCCNC(=N)N)C(=O)N[C@@H](Cc1c[nH]cn1)C(=O)N[C@@H](Cc1ccc(O)cc1)C(=O)N[C@@H](Cc1ccc(O)cc1)C(=O)N[C@@H](CC(N)=O)C(=O)N[C@@H](Cc1c[nH]c2ccccc12)C(=O)N[C@@H](CC(C)C)C(=O)N[C@H](C(=O)N[C@@H](CCCNC(=N)N)C(=O)N[C@@H](CCC(N)=O)C(=O)N[C@@H](CCCNC(=N)N)C(=O)N[C@@H](Cc1ccc(O)cc1)C(N)=O)[C@@H](C)O)C(C)C [Compound 30, N{alpha-4}-(3-methylbutanoyl)-N{epsilon-7}-[2-(2-{2-[2-(2-{2-[(4S)-4-carboxy-4-(17-carboxyheptadecanamido)butanamido]ethoxy}ethoxy)acetamido]ethoxy}ethoxy)acetamido]-[4A,7K,9E,10A,14E,18Q,22V,28Y,30W,31L]hPYY (4-36)] | 45 | –
2 | CC(C)CC(=O)N[C@@H](C)C(=O)N1CCC[C@H]1C(=O)N[C@@H](CCC(=O)O)C(=O)N[C@@H](CCCCNC(=O)COCCOCCNC(=O)COCCOCCNC(=O)CC[C@H](NC(=O)CCCCCCCCCCCCCCCCC(=O)O)C(=O)O)C(=O)N1CCC[C@H]1C(=O)N[C@@H](CCC(=O)O)C(=O)N[C@@H](CCC(=O)O)C(=O)N[C@@H](CC(=O)O)C(=O)N[C@@H](C)C(=O)N[C@@H](CO)C(=O)N1CCC[C@H]1C(=O)N[C@@H](CCC(=O)O)C(=O)N[C@@H](CCC(=O)O)C(=O)N[C@@H](CC(C)C)C(=O)N[C@@H](CCC(N)=O)C(=O)N[C@@H](CCC(N)=O)C(=O)N[C@@H](Cc1ccc(O)cc1)C(=O)N[C@@H](Cc1ccc(O)cc1)C(=O)N[C@H](C(=O)N[C@@H](CO)C(=O)N[C@@H](CC(C)C)C(=O)N[C@@H](CCCNC(=N)N)C(=O)N[C@@H](Cc1c[nH]cn1)C(=O)N[C@@H](Cc1ccc(O)cc1)C(=O)N[C@@H](Cc1ccc(O)cc1)C(=O)N[C@@H](CC(N)=O)C(=O)N[C@@H](Cc1c[nH]c2ccccc12)C(=O)N[C@@H](CC(C)C)C(=O)N[C@H](C(=O)N[C@@H](CCCNC(=N)N)C(=O)N[C@@H](CCC(N)=O)C(=O)N[C@@H](CCCNC(=N)N)C(=O)N[C@@H](Cc1ccc(O)cc1)C(N)=O)[C@@H](C)O)C(C)C [Compound 58, N{alpha-4}-(3-methylbutanoyl)-N{epsilon-7}-[2-(2-{2-[2-(2-{2-[(4S)-4-carboxy-4-(17-carboxyheptadecanamido)butanamido]ethoxy}ethoxy)acetamido]ethoxy}ethoxy)acetamido]-[4A,7K,9E,18Q,19Q,22V,28Y,30W,31L]hPYY (4-36)] | 44 | –
3 | CC(C)CC(=O)N[C@@H](C)C(=O)N1CCC[C@H]1C(=O)N[C@@H](CCC(=O)O)C(=O)N[C@@H](CCCCNC(=O)COCCOCCNC(=O)COCCOCCNC(=O)CC[C@H](NC(=O)CCCCCCCCCCCCCCCCC(=O)O)C(=O)O)C(=O)N1CCC[C@H]1C(=O)N[C@@H](CCC(=O)O)C(=O)N[C@@H](CCC(=O)O)C(=O)N[C@@H](CCC(=O)O)C(=O)N[C@@H](C)C(=O)N[C@@H](CO)C(=O)N1CCC[C@H]1C(=O)N[C@@H](CCC(=O)O)C(=O)N[C@@H](CCC(=O)O)C(=O)N[C@@H](CC(C)C)C(=O)N[C@@H](CCC(N)=O)C(=O)N[C@@H](CCCNC(=N)N)C(=O)N[C@@H](Cc1ccc(O)cc1)C(=O)N[C@@H](CCC(=O)O)C(=O)N[C@H](C(=O)N[C@@H](CO)C(=O)N[C@@H](CC(C)C)C(=O)N[C@@H](CCCNC(=N)N)C(=O)N[C@@H](Cc1c[nH]cn1)C(=O)N[C@@H](Cc1ccc(O)cc1)C(=O)N[C@@H](Cc1ccc(O)cc1)C(=O)N[C@@H](CC(N)=O)C(=O)N[C@@H](Cc1c[nH]c2ccccc12)C(=O)N[C@@H](CC(C)C)C(=O)N[C@H](C(=O)N[C@@H](CCCNC(=N)N)C(=O)N[C@@H](CCC(N)=O)C(=O)N[C@@H](CCCNC(=N)N)C(=O)N[C@@H](Cc1ccc(O)cc1)C(N)=O)[C@@H](C)O)C(C)C [Compound 154, N{alpha-4}-(3-methylbutanoyl)-N{epsilon-7}-[2-(2-{2-[2-(2-{2-[(4S)-4-carboxy-4-(17-carboxyheptadecanamido)butanamido]ethoxy}ethoxy)acetamido]ethoxy}ethoxy)acetamido]-[4A,7K,9E,11E,18Q,21E,22V,28Y,30W,31L]hPYY (4-36)] (Isovaleryl-APEK([AEEA-AEEA-γGlu-C18 diacid])PEEEASPEELQRYEVSLRHYYNWLTRQRY-NH2) | 73 | –
4 | CC(C)CC(=O)N[C@@H](C)C(=O)N1CCC[C@H]1C(=O)N[C@@H](CCC(=O)O)C(=O)N[C@@H](CCCCNC(=O)COCCOCCNC(=O)COCCOCCNC(=O)CC[C@H](NC(=O)CCCCCCCCCCCCCCCCC(=O)O)C(=O)O)C(=O)N1CCC[C@H]1C(=O)N[C@@H](CCC(=O)O)C(=O)N[C@@H](C)C(=O)N[C@@H](CC(=O)O)C(=O)N[C@@H](C)C(=O)N[C@@H](CO)C(=O)N1CCC[C@H]1C(=O)N[C@@H](CCC(=O)O)C(=O)N[C@@H](CCC(=O)O)C(=O)N[C@@H](CC(C)C)C(=O)N[C@@H](CCC(=O)O)C(=O)N[C@@H](CCC(N)=O)C(=O)N[C@@H](Cc1ccc(O)cc1)C(=O)N[C@@H](Cc1ccc(O)cc1)C(=O)N[C@H](C(=O)N[C@@H](CO)C(=O)N[C@@H](CC(C)C)C(=O)N[C@@H](CCCNC(=N)N)C(=O)N[C@@H](Cc1c[nH]cn1)C(=O)N[C@@H](Cc1ccc(O)cc1)C(=O)N[C@@H](Cc1ccc(O)cc1)C(=O)N[C@@H](CC(N)=O)C(=O)N[C@@H](Cc1c[nH]c2ccccc12)C(=O)N[C@@H](CC(C)C)C(=O)N[C@H](C(=O)N[C@@H](CCCNC(=N)N)C(=O)N[C@@H](CCC(N)=O)C(=O)N[C@@H](CCCNC(=N)N)C(=O)N[C@@H](Cc1ccc(O)cc1)C(N)=O)[C@@H](C)O)C(C)C [Compound 159, N{alpha-4}-(3-methylbutanoyl)-N{epsilon-7}-[2-(2-{2-[2-(2-{2-[(4S)-4-carboxy-4-(17-carboxyheptadecanamido)butanamido]ethoxy}ethoxy)acetamido]ethoxy}ethoxy)acetamido]-[4A,7K,9E,10A,18E,19Q,22V,28Y,30W,31L]hPYY (4-36)] | 53 | –
5 | CC(C)CC(=O)N[C@@H](C)C(=O)N1CCC[C@H]1C(=O)N[C@@H](CCC(=O)O)C(=O)N[C@@H](CCCCNC(=O)COCCOCCNC(=O)COCCOCCNC(=O)CC[C@H](NC(=O)CCCCCCCCCCCCCCCCC(=O)O)C(=O)O)C(=O)N1CCC[C@H]1C(=O)N[C@@H](CCC(=O)O)C(=O)N[C@@H](CCC(=O)O)C(=O)N[C@@H](CCC(=O)O)C(=O)N[C@@H](C)C(=O)N[C@@H](CO)C(=O)N1CCC[C@H]1C(=O)N[C@@H](CCC(=O)O)C(=O)N[C@@H](CCC(=O)O)C(=O)N[C@@H](CC(C)C)C(=O)N[C@@H](CCC(N)=O)C(=O)N[C@@H](CCC(N)=O)C(=O)N[C@@H](Cc1ccc(O)cc1)C(=O)N[C@@H](Cc1ccc(O)cc1)C(=O)N[C@H](C(=O)N[C@@H](CO)C(=O)N[C@@H](CC(C)C)C(=O)N[C@@H](CCCNC(=N)N)C(=O)N[C@@H](Cc1c[nH]cn1)C(=O)N[C@@H](Cc1ccc(O)cc1)C(=O)N[C@@H](Cc1ccc(O)cc1)C(=O)N[C@@H](CC(N)=O)C(=O)N[C@@H](Cc1c[nH]c2ccccc12)C(=O)N[C@@H](CC(C)C)C(=O)N[C@H](C(=O)N[C@@H](CCCNC(=N)N)C(=O)N[C@@H](CCC(N)=O)C(=O)N[C@@H](CCCNC(=N)N)C(=O)N[C@@H](Cc1ccc(O)cc1)C(N)=O)[C@@H](C)O)C(C)C [Compound 243, N{alpha-4}-(3-methylbutanoyl)-N{epsilon-7}-[2-(2-{2-[2-(2-{2-[(4S)-4-carboxy-4-(17-carboxyheptadecanamido)butanamido]ethoxy}ethoxy)acetamido]ethoxy}ethoxy)acetamido]-[4A,7K,9E,11E,18Q,19Q,22V,28Y,30W,31L]hPYY (4-36)] (Isovaleryl-APEK([AEEA-AEEA-γGlu-C18 diacid])PEEEASPEELQQYYVSLRHYYNWLTRQRY-NH2) | – | 2.07
